Data taken from patent EP4332574A1, “SELF-ASSEMBLED CHEMOSENSORS FOR DETECTING POLYAMINES IN PHYSIOLOGICAL MEDIA AND BIOFLUIDS” (Karlsruher Institut für Technologie, priority 2022, dated 2024).

How the values were obtained:
[1] = Host-dye fluorescence titration (quenching of dye emission on stepwise addition of host); type: binding; settings: for binding affinity (Ka): host-dye binding interaction in surine, fluorescence monitored at 423 nm
Excerpt: Addition of the receptor host molecule to the dye solution results in a quenching of the dye emission upon the formation of the self-assembled P5AS-MDAP host-dye fluorescent chemosensor. Thereby, in the sensing assay, in the presence of polyamines, the dye is displaced from the host cavity resulting in a fluorescence "turn-on" signal. The involved processes show very fast binding kinetics and fast signal responses.

[2] = system: P5AS-MDAP host-dye chemosensor; experiment: Fluorescence turn-on indicator displacement sensing assay with P5AS-MDAP chemosensor in artificial media; type: binding; settings: for relative fluorescence intensity changes monitored at 423 nm: addition of P5AS-MDAP
Excerpt: Thereby, in the sensing assay, in the presence of polyamines, the dye is displaced from the host cavity resulting in a fluorescence "turn-on" signal.
(§1) Fig. 2 Schematic illustration of established cation exchange reactions in systems wherein the known chemosensors become dysfunctional in biologically relevant media such as PBS or urine. At high salt concentrations, the signalling binding pockets of the receptor host molecule are occupied by salts and are no longer available for the detection of relevant analytes. Moreover, chemosensors self-assembled from a receptor host and dye molecules decompose at high salt concentrations as the dye is pushed out of the receptor by the salts. Fig. 3 • (a) Chemical structure of the preferred host molecule P5AS. • (b) Chemical structure of the preferred dye molecule MDAP. • (c) Chemical structure of the preferred dye molecule BrDAP. […] Fig. 8 Relative fluorescence intensity changes monitored at 433 nm on addition of P5AS-BrDAP chemosensor (21.6 µM) to • (a) human urine samples collected from four healthy individuals (diluted two times) and later spiked with several polyamines and polyamine mixtures (each at 5 µM) in order to simulate urine from diseased patients and • (b) human saliva sample collected from a healthy individual (undiluted) and later spiked with several polyamines and polyamine mixtures (each at 5 µM) in order to simulate saliva from diseased patients (microplate reader assay). […] Fig. 9 Relative fluorescence intensity changes monitored at 423 nm upon addition of • (a) P5AS-MDAP host-dye chemosensor and • (b) P5AS-BrDAP host-dye chemosensor to a solution of spermine (spm, 3.3 µM) in neurobasal™ medium.

[3] = system: P5AS-BrDAP host-dye chemosensor; experiment: Fluorescence turn-on indicator displacement sensing assay with P5AS-BrDAP chemosensor in artificial media; type: binding; settings: addition of P5AS-BrDAP
[4] = system: P5AS-BrDAP chemosensor; settings: chemosensor 21.6 µM; human urine (diluted two times) and saliva (undiluted), spiked each at 5 µM
Excerpt: as §1, with “salts.” for “salts. Fig. 3 • (a) Chemical structure of the preferred host molecule P5AS. • (b) Chemical structure of the preferred dye molecule MDAP. • (c) Chemical structure of the preferred dye molecule BrDAP.”

[5] = spermine 3.3 µM in neurobasal medium

| Structure (SMILES) | binding affinity (Ka) [1] [M⁻¹] | relative fluorescence intensity changes monitored at 423 nm ([2]; polyamine 3.3 µM in surine) | relative fluorescence intensity changes monitored at 423 nm ([3]; polyamine 3.3 µM in surine) | other results |
| --- | --- | --- | --- | --- |
| BrCCCC[n+]1cc2ccc3c[n+](CCCCBr)cc4ccc(c1)c2c34 [BrDAP, N,N'-bis(4-bromobutyl)-2,7-diazapyrenium dication] | 4.5e+08 |  |  | stronger binding affinity for P5AS compared to MDAP [1]: 10^2 times; binding affinity towards P5AS ([1]; order of magnitude, Figure 7a experiments in surine): 10^8 M^-1 |
| C[n+]1cc2ccc3c[n+](C)cc4ccc(c1)c2c34 [MDAP, N,N'-dimethyl-2,7-diazapyrenium dication] | 4.9e+06 |  |  |  |
| NCCCCN [Putrescine, putrescine] |  | does not give rise to any changes in the fluorescence intensity |  |  |
| NCCCCCN [cadaverine] |  | strong fluorescence enhancement | no significant fluorescence signal change |  |
| NCCCCNCCCN [spermidine] |  | strong fluorescence enhancement | no significant fluorescence signal change |  |
| NCCCNCCCCNCCCN [spermine] |  | strong fluorescence enhancement | strong fluorescence enhancement | relative fluorescence intensity changes monitored at 423 nm [3, 5]: strong fluorescence enhancement; relative fluorescence intensity changes monitored at 423 nm [2, 5]: strong fluorescence enhancement; time to fluorescence signal turn-on (displacement of MDAP from the host) ([2]; spermine 5.1 µM added to P5AS-MDAP in surine, 423 nm): within a few milliseconds; relative fluorescence intensity changes monitored at 433 nm, spiked versus healthy samples [4]: clear distinction between the fluorescence signal outputs |
